Reference: patent US20260347372A1, “SMALL MOLECULE INHIBITORS OF KRAS G12D MUTANT” (MERCK SHARP & DOHME LLC, priority 2023, published 2026)
Blank lines part the entries; values can stand above or below the compound they belong to.

Experiments:
KRAS WT = KRAS WT (Homo sapiens, UniProt P01116); experiment: SOS-catalyzed nucleotide exchange assay, KRAS WT (Procedure A); format: biochemical; settings: GNE
How it was run: (§1)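 Preformed TR-FRET complex of biotinylated KRAS (G12C carries C51S/C80L/C118S; others native sequence), Bodipy-GDP and Tb-streptavidin preincubated with compound 60 min at room temperature. Exchange started with human SOS plus 3 mM GTP for 60 min (G13D 30 min). Final RAS/SOS: G12C 3/40 nM; WT, G12D 1/40 nM; G13D 1.25/0 nM. 520/495 nm ratio normalised, fitted to four-parameter logistic.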

AsPC-1 cells = molecular target: T1, AsPC-1 cells (Homo sapiens, UniProt P01116, G12D); experiment: Cellular phospho-ERK assay, AsPC-1 cells (KRAS G12D); format: cell-based; settings: 2 hours, read-out: AsPC1 pERK IC50
T1 construct: p-ERK/total ERK AlphaSureFire read-out
T1 sequence (P01116 1-188 isoform P01116-2 G12D): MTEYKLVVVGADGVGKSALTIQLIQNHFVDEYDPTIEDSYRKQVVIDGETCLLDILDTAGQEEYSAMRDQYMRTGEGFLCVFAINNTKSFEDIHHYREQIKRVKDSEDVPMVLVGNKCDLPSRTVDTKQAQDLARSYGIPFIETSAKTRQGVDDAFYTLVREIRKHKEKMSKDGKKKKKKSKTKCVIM
How it was run: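 PANC08.13 or AsPC-1 cells (homozygous KRAS G12D) were seeded overnight, then treated for 2 h at 37 °C with a 10-point 1:3 titration from 30 μM. Lysates were assayed by AlphaLISA SureFire for p-ERK and total ERK. IC50 came from a 4-parameter fit of the p-ERK/total ERK ratio.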

HRAS = HRAS (Homo sapiens, UniProt P01112); experiment: SOS-catalyzed nucleotide exchange assay, HRAS (Procedure A); format: biochemical; settings: GNE
Sequence of HRAS (P01112 with tags, fused parts or gaps): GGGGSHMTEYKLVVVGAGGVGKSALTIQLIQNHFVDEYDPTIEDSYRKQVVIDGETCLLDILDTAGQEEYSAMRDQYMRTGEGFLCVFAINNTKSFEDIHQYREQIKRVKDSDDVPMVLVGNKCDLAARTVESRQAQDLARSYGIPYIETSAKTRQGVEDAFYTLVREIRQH
Excerpt: (§2) Procedure for SOS-Catalyzed Nucleotide Exchange Assay for KRAS-WT, G12C/D/V, G13D, HRAS, and NRAS (Procedure A)
(§3) Recombinant KRAS-G12C protein used in this assay has an additional triple mutation (C51S/C80L/C118S). Whereas KRAS-WT, G12D/V, G13D, HRAS and NRAS are in context of their WT protein sequence background. Specifically, the SOS-catalyzed nucleotide exchange assay utilizes a preformed TR-FRET complex containing a specific biotinylated RAS protein (KRAS-WT, G12C/V/D, G13D, HRAS, NRAS; described above) with Bodipy-GDP, and Terbium-streptavidin. Compounds are preincubated with this complex for 60 minutes. Subsequently, recombinant human SOS protein and unlabeled GTP are added to initiate the exchange reaction. Small molecule inhibitors stabilize the Bodipy-GDP complex whereas the untreated protein rapidly exchanges Bodipy-GDP for unlabeled GTP resulting in reduced TR-FRET signal.
(§4) To assemble the preformed TR-FRET complexes, each biotinylated RAS protein is diluted to 2 μM in an EDTA Buffer (20 mM HEPES pH 7.5, 50 mM sodium chloride, 10 mM EDTA, and 0.01% Tween) and incubated at room temperature for one hour. This mixture is then further diluted to 90 nM in an Assay Buffer (20 mM HEPES pH 7.5, 150 mM sodium chloride, 10 mM magnesium chloride, and 0.005% Tween) containing 15 nM of Terbium-Streptavidin (Invitrogen, catalog #PV3577) and 900 nM of Bodipy-GDP (Invitrogen, catalog #G22360) and incubated at room temperature for six hours. It should be noted that this preformed TR-FRET complex for each of the RAS protein were made ahead of time, aliquoted and stored at −80° C. until the day of the experiment.
(§5) Each test compound (10 mM stock in DMSO) is diluted in DMSO to make a final-10-point, 3-fold dilution and is acoustically dispensed into a 384-well assay plate (Corning, catalog #3820) using an Echo 550 (Labcyte). Each well of the assay plate receives 3 μL of a specific 3×RAS preformed TR-FRET complex and 3 μL of Assay Buffer and is incubated at room temperature for 60 minutes (preincubation time). Each well then receives 3 μL of 3× recombinant human SOS protein and GTP (Sigma, G8877) in Assay Buffer and is incubated at room temperature for 30 minutes (G13D), 60 minutes (KRAS WT/G12C/D, H/NRAS) or 90 minutes for G12V. The final reaction in each well of 9 μL consists of 3 mM GTP, specific Ras and SOS proteins in the following concentrations: KRAS-G12C/SOS=3 nM/40 nM, KRAS-WT and G12D/SOS=1 nM/40 nM, KRAS-G12V/SOS=1.25 nM/160 nM, KRAS-G13D/SOS=1.25 nM/0 nM, HRAS and NRAS=1.25 nM/40 nM.
(§6) The time-resolved fluorescence resonance energy transfer (TR-FRET) signal is measured on an Envision (PerkinElmer) plate reader: Excitation filter=340 nm; emission1=495 nm; emission2=520 nm; dichroic mirror=D400/D505; delay time=[…]. The signal of each well is determined as the ratio of the emission at 520 nm to that at 495 nm. Percent effect of each well is determined after normalization to control wells containing DMSO (no effect) or a saturating concentration of inhibitor (max effect). The apparent effect as a function of compound concentration is fit to a four-parameter logistic equation.
(§7) For Example No. 14, nucleotide exchange assays for KRAS G12D, WT, G12C, and G12V were performed according to Procedure B. All the other compounds were tested according to Procedure A.

KRAS G12C = KRAS G12C (Homo sapiens, UniProt P01116, C118S/C51S/C80L/G12C); experiment: SOS-catalyzed nucleotide exchange assay, KRAS G12C (Procedure A); format: biochemical; settings: GNE
Sequence of KRAS G12C (P01116 with tags, fused parts or gaps isoform P01116-2 G12C/C51S/C80L/C118S): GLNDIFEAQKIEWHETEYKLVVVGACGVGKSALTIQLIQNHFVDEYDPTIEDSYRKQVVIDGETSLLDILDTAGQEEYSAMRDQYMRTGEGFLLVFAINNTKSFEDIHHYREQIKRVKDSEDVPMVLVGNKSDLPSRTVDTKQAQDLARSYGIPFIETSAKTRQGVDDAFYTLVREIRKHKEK
Excerpt: as §2, §3, §4, §5, §6, §7

KRAS G12V = KRAS G12V (Homo sapiens, UniProt P01116, G12V); experiment: SOS-catalyzed nucleotide exchange assay, KRAS G12V (Procedure A); format: biochemical; settings: GNE
Sequence of KRAS G12V (P01116 with tags, fused parts or gaps isoform P01116-2 G12V): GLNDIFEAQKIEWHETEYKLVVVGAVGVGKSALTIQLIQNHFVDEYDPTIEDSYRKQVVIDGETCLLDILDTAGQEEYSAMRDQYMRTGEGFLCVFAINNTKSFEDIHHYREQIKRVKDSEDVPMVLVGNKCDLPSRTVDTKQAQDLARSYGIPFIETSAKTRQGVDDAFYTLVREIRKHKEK
How it was run: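 Biotinylated KRAS G12V was loaded with Bodipy-GDP alongside Terbium-streptavidin to form a TR-FRET complex, which was preincubated with compounds for 60 minutes in 384-well plates. Human SOS protein and unlabeled GTP were then added for 90 minutes, giving final concentrations of 1.25 nM KRAS-G12V, 160 nM SOS and 3 mM GTP. The 520/495 nm emission ratio was read on an Envision.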

KRAS G13D = KRAS G13D (Homo sapiens, UniProt P01116, G13D); experiment: SOS-catalyzed nucleotide exchange assay, KRAS G13D (Procedure A); format: biochemical; settings: GNE
Sequence of KRAS G13D (P01116 with tags, fused parts or gaps isoform P01116-2 G13D): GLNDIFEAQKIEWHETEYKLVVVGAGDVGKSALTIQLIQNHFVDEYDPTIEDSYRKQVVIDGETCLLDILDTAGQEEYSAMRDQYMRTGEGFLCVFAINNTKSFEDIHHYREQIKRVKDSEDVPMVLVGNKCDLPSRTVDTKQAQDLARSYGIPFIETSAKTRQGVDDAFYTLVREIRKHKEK
Excerpt: as §2, §3, §4, §5, §6, §7

NRAS = NRAS (Homo sapiens, UniProt P01111); experiment: SOS-catalyzed nucleotide exchange assay, NRAS (Procedure A); format: biochemical; settings: GNE
Sequence of NRAS (P01111 with tags, fused parts or gaps): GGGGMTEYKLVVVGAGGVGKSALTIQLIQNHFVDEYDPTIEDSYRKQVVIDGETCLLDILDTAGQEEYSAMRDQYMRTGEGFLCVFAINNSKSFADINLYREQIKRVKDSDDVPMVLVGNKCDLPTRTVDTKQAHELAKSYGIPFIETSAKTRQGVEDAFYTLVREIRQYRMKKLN
Excerpt: as §2, §3, §4, §5, §6, §7

KRAS G12D = KRAS G12D (Homo sapiens, UniProt P01116, G12D); experiment: SOS-catalyzed nucleotide exchange assay, KRAS G12D (Procedure A); format: biochemical; settings: guanine nucleotide exchange (GNE)
Sequence of KRAS G12D (P01116 with tags, fused parts or gaps isoform P01116-2 G12D): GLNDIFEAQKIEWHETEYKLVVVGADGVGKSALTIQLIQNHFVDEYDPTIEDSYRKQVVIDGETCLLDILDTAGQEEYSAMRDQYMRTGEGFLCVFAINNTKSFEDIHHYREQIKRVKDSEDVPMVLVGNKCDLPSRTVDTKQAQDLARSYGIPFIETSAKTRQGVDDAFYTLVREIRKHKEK
How it was run: as §1

Sequence of KRAS WT (P01116 with tags, fused parts or gaps isoform P01116-2): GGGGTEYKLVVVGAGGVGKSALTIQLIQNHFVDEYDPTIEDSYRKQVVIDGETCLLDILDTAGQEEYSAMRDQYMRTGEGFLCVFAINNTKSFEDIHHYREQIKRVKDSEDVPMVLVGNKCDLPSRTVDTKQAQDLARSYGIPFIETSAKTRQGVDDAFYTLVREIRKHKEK

Structure (SMILES): C#Cc1csc2cc3[nH]ncc3c(-c3nccc4c3sc3nc(OC[C@@]56CCCN5C[C@H](F)C6)nc(N5C[C@H]6CC[C@@H](C5)N6)c34)c12 [Ex-54, 4-((1R,5S)-3,8-diazabicyclo[3.2.1]octan-3-yl)-8-(5-ethynyl-1H-thieno[3,2-f]indazol-4-yl)-2-(((2R,7aS)-2-fluorotetrahydro-1H-pyrrolizin-7a(5H)-yl)methoxy)pyrido[4′,3′:4,5]thieno[2,3-d]pyrimidine]
IC50 (KRAS WT): 0.0807 µM
IC50 (AsPC-1 cells): 0.0314 µM
IC50 (HRAS): > 11.1 µM
IC50 (KRAS G12C): 0.0227 µM
IC50 (KRAS G12V): 0.0627 µM
IC50 (KRAS G13D): 0.0148 µM
IC50 (NRAS): > 11.1 µM
IC50 (KRAS G12D): 0.00192 µM

Structure (SMILES): C#Cc1cccc2cc3[nH]ncc3c(-c3nccc4c3sc3nc(OC[C@@]56CCCN5C[C@H](F)C6)nc(N5C[C@H]6CC[C@@H](C5)N6)c34)c12 [Ex-55, 4-((1R,5S)-3,8-diazabicyclo[3.2.1]octan-3-yl)-8-(5-ethynyl-1H-benzo[f]indazol-4-yl)-2-(((2R,7aS)-2-fluorotetrahydro-1H-pyrrolizin-7a(5H)-yl)methoxy)pyrido[4′,3′:4,5]thieno[2,3-d]pyrimidine]
IC50 (KRAS WT): 0.148 µM
IC50 (AsPC-1 cells): 0.025 µM
IC50 (HRAS): > 11.1 µM
IC50 (KRAS G12C): 0.0739 µM
IC50 (KRAS G12V): 0.105 µM
IC50 (KRAS G13D): 0.0425 µM
IC50 (NRAS): > 11.1 µM
IC50 (KRAS G12D): 0.00131 µM

Structure (SMILES): Fc1ccc2cc3[nH]ncc3c(-c3nccc4c3sc3nc(OC[C@@]56CCCN5C[C@H](F)C6)nc(N5C[C@H]6CC[C@@H](C5)N6)c34)c2c1Cl [Ex-59, 4-((1R,5S)-3,8-diazabicyclo[3.2.1]octan-3-yl)-8-(5-chloro-6-fluoro-1H-benzo[f]indazol-4-yl)-2-(((2R,7aS)-2-fluorotetrahydro-1H-pyrrolizin-7a(5H)-yl)methoxy)pyrido[4′,3′:4,5]thi-eno[2,3-d]pyrimidine]
IC50 (KRAS WT): 1.65 µM
IC50 (AsPC-1 cells): 0.217 µM
IC50 (HRAS): > 11.1 µM
IC50 (KRAS G12C): 0.182 µM
IC50 (KRAS G12V): 1.37 µM
IC50 (KRAS G13D): 0.265 µM
IC50 (NRAS): > 11.1 µM
IC50 (KRAS G12D): 0.00925 µM

The remaining lines, values ahead:

IC50 (KRAS WT): 8.79 µM
IC50 (AsPC-1 cells): 1.7 µM
IC50 (HRAS): > 11.1 µM
IC50 (KRAS G12C): 1.96 µM
IC50 (KRAS G12V): > 11.1 µM
IC50 (KRAS G13D): 2.74 µM
IC50 (NRAS): > 11.1 µM
IC50 (KRAS G12D): 0.128 µM
Structure (SMILES): Cc1cc2[nH]ncc2c(-c2nccc3c2sc2nc(OC[C@@]45CCCN4C[C@H](F)C5)nc(N4CC5COCC(C4)N5)c23)c1C(F)(F)F [Ex-65, 7-(2-(((2R,7aS)-2-fluorotetrahydro-1H-pyrrolizin-7a(5H)-yl)methoxy)-8-(6-methyl-5-(trifluoromethyl)-1H-indazol-4-yl)pyrido[4′,3′:4,5]thieno[2,3-d]pyrimidin-4-yl)-3-oxa-7,9-diazabicyclo[3.3.1]nonane]

IC50 (KRAS WT): 0.856 µM
IC50 (AsPC-1 cells): 0.699 µM
IC50 (HRAS): > 11.1 µM
IC50 (KRAS G12C): 0.265 µM
IC50 (KRAS G12V): 0.672 µM
IC50 (KRAS G13D): 0.323 µM
IC50 (NRAS): > 11.1 µM
IC50 (KRAS G12D): 0.0131 µM
Structure (SMILES): Cc1cc2[nH]ncc2c(-c2nccc3c2sc2nc(OC[C@@]45CCCN4C[C@H](F)C5)nc(N4CC5CC(C4)N5)c23)c1C(F)(F)F [Ex-67, 4-(3,6-diazabicyclo[3.1.1]heptan-3-yl)-2-(((2R,7aS)-2-fluorotetrahydro-1H-pyrrolizin-7a(5H)-yl)methoxy)-8-(6-methyl-5-(trifluoromethyl)-1H-indazol-4-yl)pyrido[4′,3′:4,5]thieno[2,3-d]pyrimidine]
